Source: PubChem BioAssay (NCI)
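Protocol summary: plate cells (96-well), add compound at 5 concentrations, incubate 48 h, interpolate endpoints linearly. At the TGI there is no net growth.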

Assays:
Assay in all cases: inhibition of tumour cell growth, NCI panel, 48 h
786-0 renal = system: 786-0 renal
A498 renal = system: A498 renal
A549 NSCLC = system: A549 NSCLC
ACHN renal = system: ACHN renal
BT-549 breast = system: BT-549 breast
CAKI-1 renal = system: CAKI-1 renal
CCRF-CEM leukemia = system: CCRF-CEM leukemia
COLO 205 colon = system: COLO 205 colon
DU-145 prostate = system: DU-145 prostate
EKVX NSCLC = system: EKVX NSCLC
HCC-2998 colon = system: HCC-2998 colon
HCT-116 colon = system: HCT-116 colon
HCT-15 colon = system: HCT-15 colon
HL-60(TB) leukemia = system: HL-60(TB) leukemia
HOP-62 NSCLC = system: HOP-62 NSCLC
HOP-92 NSCLC = system: HOP-92 NSCLC
HS 578T breast = system: HS 578T breast
IGROV1 ovarian = system: IGROV1 ovarian
K-562 leukemia = system: K-562 leukemia
KM12 colon = system: KM12 colon
LOX IMVI melanoma = system: LOX IMVI melanoma
M14 melanoma = system: M14 melanoma
MALME-3M melanoma = system: MALME-3M melanoma
MCF7 breast = system: MCF7 breast
MDA-MB-231 breast = system: MDA-MB-231 breast
MDA-MB-435 = system: MDA-MB-435
MDA-N = system: MDA-N
MOLT-4 leukemia = system: MOLT-4 leukemia
NCI-H226 lung = system: NCI-H226 lung
NCI-H23 lung = system: NCI-H23 lung
NCI-H460 lung = system: NCI-H460 lung
NCI-H522 lung = system: NCI-H522 lung
NCI/ADR-RES ovarian = system: NCI/ADR-RES ovarian
OVCAR-4 ovarian = system: OVCAR-4 ovarian
OVCAR-5 ovarian = system: OVCAR-5 ovarian
PC-3 prostate = system: PC-3 prostate
RPMI-8226 leukemia = system: RPMI-8226 leukemia
RXF 393 renal = system: RXF 393 renal
SF-268 CNS = system: SF-268 CNS
SF-295 CNS = system: SF-295 CNS
SK-MEL-2 melanoma = system: SK-MEL-2 melanoma
SK-MEL-28 melanoma = system: SK-MEL-28 melanoma
SK-MEL-5 melanoma = system: SK-MEL-5 melanoma
SK-OV-3 ovarian = system: SK-OV-3 ovarian
SN12C renal = system: SN12C renal
SNB-19 CNS = system: SNB-19 CNS
SR leukemia = system: SR leukemia
SW-620 colon = system: SW-620 colon
T-47D breast = system: T-47D breast
TK-10 renal = system: TK-10 renal
U251 CNS = system: U251 CNS
UACC-257 melanoma = system: UACC-257 melanoma
UACC-62 melanoma = system: UACC-62 melanoma
UO-31 renal = system: UO-31 renal
HT29 colon = system: HT29 colon
OVCAR-3 ovarian = system: OVCAR-3 ovarian
OVCAR-8 ovarian = system: OVCAR-8 ovarian
SF-539 CNS = system: SF-539 CNS
SNB-75 CNS = system: SNB-75 CNS

For `Cc1ccc(-c2nc3cc(N4CCN(C)CC4)c(F)cc3[nH]2)cc1`, the TGI (786-0 renal) was 39 µM, the TGI (A498 renal) was 91.4 µM and the TGI (A549 NSCLC) was 49 µM. The TGI (ACHN renal) was 70.5 µM, the TGI (BT-549 breast) was 55.8 µM and the TGI (CAKI-1 renal) was > 100 µM. The TGI (CCRF-CEM leukemia) was > 100 µM, the TGI (COLO 205 colon) was 34.5 µM and the TGI (DU-145 prostate) was > 100 µM. It also gave a TGI (EKVX NSCLC) of 70 µM, a TGI (HCC-2998 colon) of 24.6 µM and a TGI (HCT-116 colon) of 50 µM. The TGI (HCT-15 colon) was 21 µM, the TGI (HL-60(TB) leukemia) was 46 µM and the TGI (HOP-62 NSCLC) was 29.3 µM. The TGI (HOP-92 NSCLC) was > 100 µM, the TGI (HS 578T breast) was 29.1 µM and the TGI (IGROV1 ovarian) was 90 µM. The TGI (K-562 leukemia) was > 100 µM, the TGI (KM12 colon) was 27 µM and the TGI (LOX IMVI melanoma) was 94.3 µM. For the same compound, the TGI (M14 melanoma) was 31 µM, the TGI (MALME-3M melanoma) was 31.2 µM and the TGI (MCF7 breast) was 30.3 µM. The TGI (MDA-MB-231 breast) was > 100 µM, the TGI (MDA-MB-435) was 48.1 µM and the TGI (MDA-N) was 95.7 µM. For the same compound, the TGI (MOLT-4 leukemia) was > 100 µM, the TGI (NCI-H226 lung) was 38.3 µM and the TGI (NCI-H23 lung) was > 100 µM. For the same compound, the TGI (NCI-H460 lung) was 32.6 µM, the TGI (NCI-H522 lung) was 31.9 µM and the TGI (NCI/ADR-RES ovarian) was > 100 µM. The TGI (OVCAR-4 ovarian) was 59.3 µM, the TGI (OVCAR-5 ovarian) was 60.2 µM and the TGI (PC-3 prostate) was > 100 µM. For the same compound, the TGI (RPMI-8226 leukemia) was 75.5 µM, the TGI (RXF 393 renal) was 38.4 µM and the TGI (SF-268 CNS) was 43.6 µM. The TGI (SF-295 CNS) was 30.4 µM, the TGI (SK-MEL-2 melanoma) was 32 µM and the TGI (SK-MEL-28 melanoma) was 61.3 µM. The TGI (SK-MEL-5 melanoma) was 25.1 µM, the TGI (SK-OV-3 ovarian) was 57.7 µM and the TGI (SN12C renal) was > 100 µM. For the same compound, the TGI (SNB-19 CNS) was 58.9 µM, the TGI (SR leukemia) was > 100 µM and the TGI (SW-620 colon) was > 100 µM. The TGI (T-47D breast) was 50.7 µM, the TGI (TK-10 renal) was > 100 µM and the TGI (U251 CNS) was > 100 µM. The TGI (UACC-257 melanoma) was 34.3 µM, the TGI (UACC-62 melanoma) was 31.3 µM and the TGI (UO-31 renal) was 27.4 µM.

In the case of `COC(=O)/C=C/CC(=O)NS(C)(=O)=O`, the TGI (786-0 renal) was > 10 µM, the TGI (A498 renal) was > 10 µM and the TGI (A549 NSCLC) was > 10 µM. For the same compound, the TGI (ACHN renal) was > 10 µM, the TGI (BT-549 breast) was > 10 µM and the TGI (CAKI-1 renal) was > 10 µM. The TGI (CCRF-CEM leukemia) was > 10 µM, the TGI (COLO 205 colon) was > 10 µM and the TGI (DU-145 prostate) was > 10 µM. For the same compound, the TGI (EKVX NSCLC) was > 10 µM, the TGI (HCC-2998 colon) was > 10 µM and the TGI (HCT-116 colon) was > 10 µM. The TGI (HCT-15 colon) was > 10 µM, the TGI (HL-60(TB) leukemia) was > 10 µM and the TGI (HOP-62 NSCLC) was > 10 µM. For the same compound, the TGI (HS 578T breast) was > 10 µM, the TGI (HT29 colon) was > 10 µM and the TGI (IGROV1 ovarian) was > 10 µM. For the same compound, the TGI (KM12 colon) was > 10 µM, the TGI (LOX IMVI melanoma) was > 10 µM and the TGI (M14 melanoma) was > 10 µM. For the same compound, the TGI (MALME-3M melanoma) was > 10 µM, the TGI (MCF7 breast) was > 10 µM and the TGI (MDA-MB-231 breast) was > 10 µM. The TGI (MDA-MB-435) was > 10 µM, the TGI (MDA-N) was > 10 µM and the TGI (MOLT-4 leukemia) was > 10 µM. For the same compound, the TGI (NCI-H226 lung) was > 10 µM, the TGI (NCI-H23 lung) was > 10 µM and the TGI (NCI-H460 lung) was > 10 µM. For the same compound, the TGI (NCI-H522 lung) was > 10 µM, the TGI (NCI/ADR-RES ovarian) was > 10 µM and the TGI (OVCAR-3 ovarian) was > 10 µM. The TGI (OVCAR-4 ovarian) was > 10 µM, the TGI (OVCAR-5 ovarian) was > 10 µM and the TGI (OVCAR-8 ovarian) was > 10 µM. For the same compound, the TGI (PC-3 prostate) was > 10 µM, the TGI (RPMI-8226 leukemia) was > 10 µM and the TGI (RXF 393 renal) was > 10 µM. The TGI (SF-268 CNS) was > 10 µM, the TGI (SF-295 CNS) was > 10 µM and the TGI (SF-539 CNS) was > 10 µM. The TGI (SK-MEL-2 melanoma) was > 10 µM, the TGI (SK-MEL-28 melanoma) was > 10 µM and the TGI (SK-MEL-5 melanoma) was > 10 µM. The TGI (SK-OV-3 ovarian) was > 10 µM, the TGI (SN12C renal) was > 10 µM and the TGI (SNB-19 CNS) was > 10 µM. The TGI (SR leukemia) was > 10 µM, the TGI (SW-620 colon) was > 10 µM and the TGI (T-47D breast) was > 10 µM. The TGI (TK-10 renal) was > 10 µM, the TGI (U251 CNS) was > 10 µM and the TGI (UACC-257 melanoma) was > 10 µM. The TGI (UACC-62 melanoma) was > 10 µM and the TGI (UO-31 renal) was > 10 µM.

`COC(=O)C(=O)C(C(=O)C(=O)Nc1ccc([N+](=O)[O-])cc1[N+](=O)[O-])c1nc2ccc(Cl)cc2[nH]c1=O` (configuration not stated) was tested, and the TGI (786-0 renal) was > 100 µM, the TGI (A498 renal) was > 100 µM and the TGI (A549 NSCLC) was > 100 µM. For the same compound, the TGI (ACHN renal) was > 100 µM, the TGI (BT-549 breast) was > 100 µM and the TGI (CAKI-1 renal) was > 100 µM. The TGI (COLO 205 colon) was > 100 µM, the TGI (DU-145 prostate) was > 100 µM and the TGI (HCC-2998 colon) was > 100 µM. The TGI (HCT-116 colon) was > 100 µM, the TGI (HCT-15 colon) was > 100 µM and the TGI (HL-60(TB) leukemia) was > 100 µM. For the same compound, the TGI (HOP-92 NSCLC) was > 100 µM, the TGI (HS 578T breast) was 90.8 µM and the TGI (HT29 colon) was > 100 µM. For the same compound, the TGI (K-562 leukemia) was > 100 µM, the TGI (KM12 colon) was > 100 µM and the TGI (LOX IMVI melanoma) was > 100 µM. For the same compound, the TGI (M14 melanoma) was > 100 µM, the TGI (MCF7 breast) was > 100 µM and the TGI (MDA-MB-231 breast) was > 100 µM. The TGI (MDA-MB-435) was > 100 µM, the TGI (MDA-N) was > 100 µM and the TGI (MOLT-4 leukemia) was > 100 µM. The TGI (NCI-H226 lung) was > 100 µM, the TGI (NCI-H23 lung) was > 100 µM and the TGI (NCI-H460 lung) was > 100 µM. For the same compound, the TGI (NCI/ADR-RES ovarian) was > 100 µM, the TGI (OVCAR-3 ovarian) was > 100 µM and the TGI (OVCAR-4 ovarian) was > 100 µM. The TGI (OVCAR-5 ovarian) was > 100 µM, the TGI (OVCAR-8 ovarian) was > 100 µM and the TGI (PC-3 prostate) was > 100 µM. The TGI (RPMI-8226 leukemia) was > 100 µM, the TGI (RXF 393 renal) was > 100 µM and the TGI (SF-268 CNS) was > 100 µM. For the same compound, the TGI (SF-295 CNS) was > 100 µM, the TGI (SF-539 CNS) was > 100 µM and the TGI (SK-MEL-2 melanoma) was > 100 µM. The TGI (SK-MEL-28 melanoma) was > 100 µM, the TGI (SK-MEL-5 melanoma) was > 100 µM and the TGI (SK-OV-3 ovarian) was > 100 µM. The TGI (SN12C renal) was > 100 µM, the TGI (SNB-19 CNS) was > 100 µM and the TGI (SNB-75 CNS) was 73.1 µM. The TGI (SR leukemia) was > 100 µM, the TGI (SW-620 colon) was > 100 µM and the TGI (T-47D breast) was > 100 µM. For the same compound, the TGI (U251 CNS) was > 100 µM, the TGI (UACC-257 melanoma) was > 100 µM and the TGI (UACC-62 melanoma) was > 100 µM. For the same compound, the TGI (UO-31 renal) was > 100 µM.
